According to the supplement of paper PMC10307832:

Key:
Experiment in all cases: relative viability (nuclei count vs DMSO), 5 days (fraction); higher = more cells survive
Metformin + Alpelisib = compound: CN(C)C(=N)NC(=N)N [Metformin] + Cc1nc(NC(=O)N2CCC[C@H]2C(N)=O)sc1-c1ccnc(C(C)(C)C(F)(F)F)c1 [Alpelisib] (partner 2 µM)
Method in brief: (§1)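 Lung cancer cell lines were pin-tool dosed in 1536-well plates on the day after seeding, with either a lone drug or a fixed anchor-drug dose plus five library-drug doses (not always all listed) in √10 steps. Nuclei were counted on 4× images after 5 days. Relative viability is the ratio of treated-well to vehicle-well nuclei counts, with each value a median of duplicate plates.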

Metformin + Dasatinib = compound: CN(C)C(=N)NC(=N)N [Metformin] + Cc1nc(Nc2ncc(C(=O)Nc3c(C)cccc3Cl)s2)cc(N2CCN(CCO)CC2)n1 [Dasatinib] (partner 0.075 µM)
Method in brief: as §1

Apatinib + Foretinib = compound: N#CC1(c2ccc(NC(=O)c3cccnc3NCc3ccncc3)cc2)CCCC1 [Apatinib] + COc1cc2c(Oc3ccc(NC(=O)C4(C(=O)Nc5ccc(F)cc5)CC4)cc3F)ccnc2cc1OCCCN1CCOCC1 [Foretinib] (partner 0.25 µM)
Method in brief: as §1

Apatinib + Phenformin = compound: N#CC1(c2ccc(NC(=O)c3cccnc3NCc3ccncc3)cc2)CCCC1 [Apatinib] + N=C(N)NC(=N)NCCc1ccccc1 [Phenformin] (partner 250 µM)
Method in brief: as §1

Cell Line	relative viability (Metformin + Alpelisib; first compound 10 µM)	relative viability (Metformin + Alpelisib; first compound 31.62 µM)	relative viability (Metformin + Alpelisib; first compound 100 µM)	relative viability (Metformin + Alpelisib; first compound 316.23 µM)	relative viability (Metformin + Alpelisib; first compound 1000 µM)	relative viability (Metformin + Dasatinib; first compound 10 µM)	relative viability (Metformin + Dasatinib; first compound 31.62 µM)	relative viability (Metformin + Dasatinib; first compound 100 µM)	relative viability (Metformin + Dasatinib; first compound 316.23 µM)	relative viability (Metformin + Dasatinib; first compound 1000 µM)	relative viability (Apatinib + Foretinib; first compound 0.08 µM)	relative viability (Apatinib + Foretinib; first compound 0.253 µM)	relative viability (Apatinib + Foretinib; first compound 0.8 µM)	relative viability (Apatinib + Foretinib; first compound 2.53 µM)	relative viability (Apatinib + Foretinib; first compound 8 µM)	relative viability (Apatinib + Phenformin; first compound 0.08 µM)	relative viability (Apatinib + Phenformin; first compound 0.253 µM)	relative viability (Apatinib + Phenformin; first compound 0.8 µM)	relative viability (Apatinib + Phenformin; first compound 2.53 µM)	relative viability (Apatinib + Phenformin; first compound 8 µM)
NCI-H1563	1.06	0.914	1.06	0.827	0.72	0.535	0.573	0.574	0.545	0.489	0.897	0.996	0.884	0.812	0.897	0.642	0.705	0.75	0.517	0.623
NCI-H23	0.825	0.941	0.696	0.715	0.901	0.759	0.876	0.833	0.499	0.802	1	1.21	1.05	1	1.1	0.851	0.733	0.735	0.717	0.705
NCI-H596	0.627	0.652	0.655	0.547	0.577	0.622	0.67	0.757	0.696	0.655	0.771	0.888	0.624	0.99	0.853	0.801	0.724	0.723	0.705	0.711
NCI-H1734	0.697	0.718	0.715	0.681	0.827	0.413	0.472	0.463	0.47	0.498	0.932	0.833	0.839	0.732	0.676	0.401	0.481	0.381	0.342	0.353
NCI-H2405	0.873	0.971	0.852	0.453	0.373	0.272	0.265	0.253	0.272	0.255	1.15	1.02	1.09	0.998	1.09	0.392	0.392	0.394	0.33	0.344
NCI-H727	0.657	0.749	0.469	0.647	0.533	0.399	0.451	0.478		0.49	1.02	0.676	0.937	0.835	0.912	0.566	0.542	0.528	0.539	0.514
NCI-H2009	1.25	1.16	1.13	1.17	1.1	0.503	0.522	0.483	0.401	0.467	1.39	1.18	1.17	1.07	0.853	0.494	0.497	0.382	0.264	0.219
NCI-H1666	0.943	1.05	1.12	0.981	1.29	0.752	0.957	0.79	0.798	0.779	0.953	0.998	0.942	0.943	1.03	0.567	0.572	0.6	0.53	0.564
UMC-11	1.06	0.992	1.03	0.988	0.971	0.528	0.482	0.546	0.447	0.45	1.04	1.09	0.935	0.939	1.03	0.333	0.318	0.287	0.293	0.266
NCI-H1755	0.767	0.826	0.796	0.724	0.798	0.422	0.332	0.433	0.36	0.417	0.984	0.954	0.912	0.91	0.806	0.626	0.611	0.628	0.609	0.559
201T		0.987	0.989	0.955	0.985		0.579	0.63	0.53	0.559	1.15	1.11	1.05	1.06	0.813	0.481	0.448	0.413	0.33	0.405
NCI-H838	1.04	0.969	0.969	0.988	1.02	0.271	0.254	0.356	0.241	0.348	1.14	1.18	0.997	0.946	0.986	0.716	0.686	0.521	0.507	0.518
HOP-62	0.828	0.77	0.777	0.928	0.934	0.748	0.664	0.687	0.713	0.655	1.15	1.18	1.11	1.1	0.848	0.646	0.646	0.638	0.625	0.577
LC-2-ad		0.812	0.671	0.69	0.651		0.598	0.606	0.372	0.44	0.935	0.89	0.904	0.947	0.868	0.539	0.579	0.517	0.539	0.582
NCI-H2170	0.748	0.792	0.819	0.806	0.805	0.514	0.625	0.619	0.664	0.634	1.04	0.958	0.978	0.983	0.846	0.462	0.404	0.373	0.355	0.335
LCLC-97TM1	0.285	0.284	0.339	0.252	0.346	0.739	0.734	0.591	0.529	0.725	0.907	0.882	0.944	0.959	0.584	0.411	0.409	0.424	0.404	0.37
